The experiment concerns KMS.12.BM cells. The experiment can be described thus: KMS.12.BM cell viability assay. Conditions: KMS.12.BM human myeloma cells, 3 days, Cell Titer-GLO ATP quantitation, read-out: KMS cellular IC50. In kind it is cell-based. The procedure, abridged: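 Human myeloma KMS.12.BM cells, 5000 per well in RPMI/10% FBS, exposed 3 days to compound concentration range. Viability from ATP-based Cell Titer-GLO luminescence; IC50 derived.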

pIC50: −log10 of the molar value. Where a name gives a salt, the structure may show the parent alone. Read-outs that look alike come from different tables or passages of the source.

With `CNC(=O)CCn1ccc(-c2cc3c(ccc4nnc(C)n43)n2Cc2cccc(Cl)c2)n1` [Example 174, 3-{3-[6-(3-Chlorobenzyl)-1-methyl-6H-pyrrolo[2,3-e][1,2,4]triazolo[4,3-a]pyridin-7-yl]-1H-pyrazol-1-yl}-N-methylpropanamide trifluoroacetate salt], the pIC50 (72 h) was at least 6.00.

Regarding `CCNC(=O)CCn1ccc(-c2cc3c(ccc4nnc(C)n43)n2Cc2cccc(Cl)c2)n1` [Example 175, 3-{3-[6-(3-Chlorobenzyl)-1-methyl-6H-pyrrolo[2,3-e][1,2,4]triazolo[4,3-a]pyridin-7-yl]-1H-pyrazol-1-yl}-N-ethylpropanamide trifluoroacetate salt], for the setting “72 h”, the pIC50 was at least 6.00.

For `Cc1nnc2ccc3c(cc(-c4ccn(CCC(=O)NC(C)(C)C)n4)n3Cc3cccc(Cl)c3)n12` [Example 176, N-(tert-Butyl)-3-{3-[6-(3-chlorobenzyl)-1-methyl-6H-pyrrolo[2,3-e][1,2,4]triazolo[4,3-a]pyridin-7-yl]-1H-pyrazol-1-yl}propanamide trifluoroacetate salt], the pIC50 (72 h) was at least 6.00.

Take `Cc1nnc2ccc3c(cc(-c4ccn(C5COC5)n4)n3Cc3cccc(Cl)c3)n12` [Example 177, 6-(3-Chlorobenzyl)-1-methyl-7-(1-oxetan-3-yl-1H-pyrazol-3-yl)-6H-pyrrolo[2,3-e][1,2,4]triazolo[4,3-a]pyridine trifluoroacetate salt]: the pIC50 (72 h) is at least 6.00.

For the compound `Cc1nnc2ccc3c(cc(-c4ccn(CCO)n4)n3Cc3cccc(Cl)c3)n12` [Example 178, 2-{3-[6-(3-Chlorobenzyl)-1-methyl-6H-pyrrolo[2,3-e][1,2,4]triazolo[4,3-a]pyridin-7-yl]-1H-pyrazol-1-yl}ethanol trifluoroacetate salt], the pIC50 (72 h) was at least 6.00.

As for `Cc1nnc2ccc3c(cc(-c4ccn(C5CN(CCO)C5)n4)n3Cc3cccc(Cl)c3)n12` [Example 179, 2-(3-{3-[6-(3-Chlorobenzyl)-1-methyl-6H-pyrrolo[2,3-e][1,2,4]triazolo[4,3-a]pyridin-7-yl]-1H-pyrazol-1-yl}azetidin-1-yl)ethanol bis(trifluoroacetate) salt], the pIC50 (72 h) is at least 6.00.

Turning to `Cc1nnc2ccc3c(cc(-c4ccn(C5CN(C)C5)n4)n3Cc3cccc(Cl)c3)n12` [Example 180, 6-(3-Chlorobenzyl)-1-methyl-7-[1-(1-methylazetidin-3-yl)-1H-pyrazol-3-yl]-6H-pyrrolo[2,3-e][1,2,4]triazolo[4,3-a]pyridine bis(trifluoroacetate) salt], the pIC50 (72 h) was at least 6.00.

On to `Cc1nnc2ccc3c(cc(-c4ccn(C5CN(CCC#N)C5)n4)n3Cc3cccc(Cl)c3)n12` [Example 181, 3-(3-{3-[6-(3-Chlorobenzyl)-1-methyl-6H-pyrrolo[2,3-e][1,2,4]triazolo[4,3-a]pyridin-7-yl]-1H-pyrazol-1-yl}azetidin-1-yl)propanenitrile bis(trifluoroacetate) salt], for which, under “72 h”, the pIC50 is at least 6.00.

Regarding `Cc1nnc2ccc3c(cc(-c4cc[nH]n4)n3Cc3cccc(CN4CCC4)c3)n12` [Example 182, 6-[3-(Azetidin-1-ylmethyl)benzyl]-1-methyl-7-(1H-pyrazol-3-yl)-6H-pyrrolo[2,3-e][1,2,4]triazolo[4,3-a]pyridine tris(trifluoroaceate) salt], the pIC50 is at least 6.00.

As for `Cc1nnc2ccc3c(cc(-c4ccn(CCC#N)n4)n3Cc3cccc(CN4CCC4)c3)n12` [Example 183, 3-(3-{6-[3-(Azetidin-1-ylmethyl)benzyl]-1-methyl-6H-pyrrolo[2,3-e][1,2,4]triazolo[4,3-a]pyridin-7-yl}-1H-pyrazol-1-yl)propanenitrile bis(trifluoroacetate) salt], for the setting “72 h”, the pIC50 is at least 6.00.

`Cc1nnc2ccc3c(cc(-c4ccn(C)n4)n3Cc3cccc(CN4CCC4)c3)n12` [Example 184, 6-[3-(Azetidin-1-ylmethyl)benzyl]-1-methyl-7-(1-methyl-1H-pyrazol-3-yl)-6H-pyrrolo[2,3-e][1,2,4]triazolo[4,3-a]pyridine bis(trifluoroacetate) salt]: under “72 h”, the pIC50 is at least 6.00.

Take `Cc1nnc2ccc3c(cc(-c4ccn(C)n4)n3Cc3cc(Cl)cc(CN4CCC4)c3)n12` [Example 185, 6-[3-(Azetidin-1-ylmethyl)-5-chlorobenzyl]-1-methyl-7-(1-methyl-1H-pyrazol-3-yl)-6H-pyrrolo[2,3-e][1,2,4]triazolo[4,3-a]pyridine tris(trifluoroacetate) salt]: the pIC50 (72 h) was at least 6.00.

Turning to `CCn1ccc(-c2cc3c(ccc4nnc(C)n43)n2Cc2cc(Cl)cc(CN3CCC3)c2)n1` [Example 188, 6-(3-(Azetidin-1-ylmethyl)-5-chlorobenzyl)-7-(1-ethyl-1H-pyrazol-3-yl)-1-methyl-6H-pyrrolo[2,3-e][1,2,4]triazolo[4,3-a]pyridine tris(trifluoroacetate) salt], the pIC50 (72 h) was at least 6.00.

Consider `CCn1ccc(-c2cc3c(ccc4nnc(C)n43)n2Cc2cc(Cl)cc(CN3CCCC3)c2)n1` [Example 189, 6-(3-Chloro-5-(pyrrolidin-1-ylmethyl)benzyl)-7-(1-ethyl-1H-pyrazol-3-yl)-1-methyl-6H-pyrrolo[2,3-e][1,2,4]triazolo[4,3-a]pyridine tris(trifluoroacetate) salt], for which, where the note is “72 h”, the pIC50 is at least 6.00.

As for `Cc1nnc2ccc3c(cc(-c4ccn(C)n4)n3Cc3cc(Cl)cc(CN4CCCC4)c3)n12` [Example 190, 6-[3-Chloro-5-(pyrrolidin-1-ylmethyl)benzyl]-1-methyl-7-(1-methyl-1H-pyrazol-3-yl)-6H-pyrrolo[2,3-e][1,2,4]triazolo[4,3-a]pyridine bis(trifluoroacetate) salt], for the setting “72 h”, the pIC50 is at least 6.00.

As to `Cc1nnc2ccc3c(cc(-c4ccn(C)n4)n3Cc3cc(Cl)cc(CN(C)C)c3)n12` [Example 191, 1-(3-Chloro-5-{[1-methyl-7-(1-methyl-1H-pyrazol-3-yl)-6H-pyrrolo[2,3-e][1,2,4]triazolo[4,3-a]pyridin-6-yl]methyl}phenyl)-N,N-dimethylmethanamine bis(trifluoroacetate) salt], for the setting “72 h”, the pIC50 was at least 6.00.

With `Cc1nnc2ccc3c(cc(-c4ccn(C)n4)n3Cc3cc(Cl)cc(CN4CCOCC4)c3)n12` [Example 192, 6-[3-Chloro-5-(morpholin-4-ylmethyl)benzyl]-1-methyl-7-(1-methyl-1H-pyrazol-3-yl)-6H-pyrrolo[2,3-e][1,2,4]triazolo[4,3-a]pyridine bis(trifluoroacetate) salt], the pIC50 (72 h) was at least 6.00.

For `Cc1nnc2ccc3c(cc(C4=NCCO4)n3Cc3cccc(Cl)c3)n12` [Example 193, 6-(3-Chlorobenzyl)-7-(4,5-dihydro-1,3-oxazol-2-yl)-1-methyl-6H-pyrrolo[2,3-e][1,2,4]triazolo[4,3-a]pyridine], for the setting “72 h”, the negative logarithm of the IC50 (pIC50) is at least 6.00.

In the case of `Cc1nnc2ccc3c(cc(-c4ncco4)n3Cc3cccc(Cl)c3)n12` [Example 194, 6-(3-Chlorobenzyl)-1-methyl-7-(1,3-oxazol-2-yl)-6H-pyrrolo[2,3-e][1,2,4]triazolo[4,3-a]pyridine trifluoroacetate salt], the pIC50 (72 h) is at least 6.00.

Take `Cc1nnc2ccc3c(cc(-c4ncco4)n3Cc3cc(Cl)cc(CN4CCC4)c3)n12` [Example 195, 6-[3-(Azetidin-1-ylmethyl)-5-chlorobenzyl]-1-methyl-7-(1,3-oxazol-2-yl)-6H-pyrrolo[2,3-e][1,2,4]triazolo[4,3-a]pyridine bis(trifluoroacetate) salt]: the pIC50 (72 h) was at least 6.00.

In the case of `Cc1nnc2ccc3c(cc(-c4ncco4)n3Cc3cc(Cl)cc(CN4CC(C)(C)C4)c3)n12` [Example 196, 6-{3-Chloro-5-[(3,3-dimethylazetidin-1-yl)methyl]benzyl}-1-methyl-7-(1,3-oxazol-2-yl)-6H-pyrrolo[2,3-e][1,2,4]triazolo[4,3-a]pyridine bis(trifluoroacetate) salt], the pIC50 (72 h) was at least 6.00.

As for `Cc1nnc2ccc3c(cc(-c4ncco4)n3Cc3cc(Cl)cc(CN4CCCC4)c3)n12` [Example 197, 6-[3-Chloro-5-(pyrrolidin-1-ylmethyl)benzyl]-1-methyl-7-(1,3-oxazol-2-yl)-6H-pyrrolo[2,3-e][1,2,4]triazolo[4,3-a]pyridine bis(trifluoroacetate) salt], the pIC50 (72 h) is at least 6.00.

As for `Cc1nnc2ccc3c(cc(-c4ncco4)n3Cc3cc(Cl)cc(CN4CC(O)C4)c3)n12` [Example 198, 1-(3-Chloro-5-{[1-methyl-7-(1,3-oxazol-2-yl)-6H-pyrrolo[2,3-e][1,2,4]triazolo[4,3-a]pyridin-6-yl]methyl}benzyl)azetidin-3-ol bis(trifluoroacetate) salt], the pIC50 (72 h) was at least 6.00.

Take `Cc1cc2c(cc(Nc3cc[nH]n3)c3nnc(C)n32)n1Cc1ccccc1` [Example 200, 6-Benzyl-1,7-dimethyl-N-1H-pyrazol-3-yl-6H-pyrrolo[2,3-e][1,2,4]triazolo[4,3-a]pyridin-4-amine tris(trifluoroacetate) salt]: under “72 h”, the pIC50 was at least 6.00.

As to `Cc1cc2c(cc(Nc3ncccn3)c3nnc(C)n32)n1Cc1ccccc1` [Example 201, 6-Benzyl-1,7-dimethyl-N-pyrimidin-2-yl-6H-pyrrolo[2,3-e][1,2,4]triazolo[4,3-a]pyridin-4-amine tris(trifluoroacetate) salt], the pIC50 (72 h) is at least 6.00.

With `Cc1cc2c(cc(Nc3ccn(C)n3)c3nnc(C)n32)n1Cc1ccccc1` [Example 202, 6-Benzyl-1,7-dimethyl-N-(1-methyl-1H-pyrazol-3-yl)-6H-pyrrolo[2,3-e][1,2,4]triazolo[4,3-a]pyridin-4-amine tris(trifluoroacetate) salt], the pIC50 (72 h) is at least 6.00.

Turning to `Cc1cc2c(cc(Nc3nc4ccccc4o3)c3nnc(C)n32)n1Cc1ccccc1` [Example 203, N-1,3-Benzoxazol-2-yl-6-benzyl-1,7-dimethyl-6H-pyrrolo[2,3-e][1,2,4]triazolo[4,3-a]pyridin-4-amine bis(trifluoroacetate) salt], the pIC50 (72 h) was at least 6.00.

Turning to `Cc1cc2c(cc(O)c3nnc(C)n32)n1Cc1ccccc1` [Example 204, 6-Benzyl-1,7-dimethyl-6H-pyrrolo[2,3-e][1,2,4]triazolo[4,3-a]pyridin-4-ol trifluoroacetate salt], where the note is “72 h”, the pIC50 is 5.00 to 6.00.

Values taken from patent publication US10442803B2, “Tricyclic heterocycles as bet protein inhibitors” (Incyte Corporation, priority 2013, dated 2019).
